Experiment: physchem
Details: phosphate buffer, pH 7, aqueous buffer
Experimental: Solubility of the compounds is determined at four fixed concentrations and is expressed as µg/mL. Solubility or insolubility is measured in phosphate buffer using a turbidometric plate reader by automated micro addition of a compound predissolved in DMSO. Solubilities at 50, 100, 200 and 250 or 100, 200, 400 and 500 micrograms/mL can be determined by predissolving 1 mg of compound in sufficient DMSO to reach an initial concentration of 20 or 40 µg/ µL.
A spectramax 250 UV transparent 96 well microplate is filled with 200 µL of Stock pH 7 phosphate buffer solution. A series of 25 absorption readings in a 5 by 5 matrix at a wavelength of 492nm are taken for each well in the microplate containing pH buffer alone. […]
After compound addition, a second scan consisting of a series of 25 absorption readings in a 5 by 5 matrix are taken for each well in the microplate at the same wavelength as the first blank scan. The raw compound OD values for each reading in the 5 by 5 matrix are subtracted from the corresponding "blank" values in the 5 by 5 matrix to provide the raw solubility OD data.
Data obtained from the Tecan SLT Spectra Image Reader is then analyzed using a Visual Basic computer program (or can be calculated manually according to methods well known to those of ordinary skill in the art), so as to provide solubility data for each compound.

solubility [µg/mL]	Structure (SMILES)
< 5	CC(C)(F)CC[C@H](C[C@H](O)[C@H](Cc1ccccc1)NC(=O)c1cnc(Cl)c(Cl)c1)C(N)=O [Example 247]
> 100	CC(C)(O)CC[C@H](C[C@H](O)[C@H](Cc1cccc(Cl)c1)NC(=O)c1cnc2ccccc2n1)C(N)=O [Example 2, Quinoxaline-2-carboxylic acid [4(R)-carbamoyl-1(S)-(3-chloro-benzyl)-2(S),7-dihydroxy-7-methyl-octyl]-amide]

From patent publication EP1051405B1, “NOVEL DIHYDROXYHEXANOIC ACID DERIVATIVES” (Pfizer Products Inc., priority 1998, dated 1999)
